Values of other authors, collected in patent publication US7179486B1, “Process for preparing sustained release tablets” (Nostrum Pharmaceuticals, Inc., priority 1997, dated 2007).

dosage release within a one hour period causing a flushing response in most subjects: more than 75 mg
SMILES: O=C(O)c1cccnc1 [niacin, Niacin]
